Assay results as given in US20110282056A1, “PROTEIN KINASE INHIBITORS AND USE THEREOF” (priority 2008, published 2011).

Columns and labels:
Format in all cases: biochemical
Flt3 = target: T1, Flt3 (Homo sapiens, UniProt P36888); assay: Flt3 enzyme activity assay (Caliper LC3000 mobility shift); details: 350 uM ATP (Km), 3 nM Flt3, 90 minutes at RT
T1 construct: purchased BPS Bioscience; San Diego, Calif; 40225
T1 sequence (P36888 27-993): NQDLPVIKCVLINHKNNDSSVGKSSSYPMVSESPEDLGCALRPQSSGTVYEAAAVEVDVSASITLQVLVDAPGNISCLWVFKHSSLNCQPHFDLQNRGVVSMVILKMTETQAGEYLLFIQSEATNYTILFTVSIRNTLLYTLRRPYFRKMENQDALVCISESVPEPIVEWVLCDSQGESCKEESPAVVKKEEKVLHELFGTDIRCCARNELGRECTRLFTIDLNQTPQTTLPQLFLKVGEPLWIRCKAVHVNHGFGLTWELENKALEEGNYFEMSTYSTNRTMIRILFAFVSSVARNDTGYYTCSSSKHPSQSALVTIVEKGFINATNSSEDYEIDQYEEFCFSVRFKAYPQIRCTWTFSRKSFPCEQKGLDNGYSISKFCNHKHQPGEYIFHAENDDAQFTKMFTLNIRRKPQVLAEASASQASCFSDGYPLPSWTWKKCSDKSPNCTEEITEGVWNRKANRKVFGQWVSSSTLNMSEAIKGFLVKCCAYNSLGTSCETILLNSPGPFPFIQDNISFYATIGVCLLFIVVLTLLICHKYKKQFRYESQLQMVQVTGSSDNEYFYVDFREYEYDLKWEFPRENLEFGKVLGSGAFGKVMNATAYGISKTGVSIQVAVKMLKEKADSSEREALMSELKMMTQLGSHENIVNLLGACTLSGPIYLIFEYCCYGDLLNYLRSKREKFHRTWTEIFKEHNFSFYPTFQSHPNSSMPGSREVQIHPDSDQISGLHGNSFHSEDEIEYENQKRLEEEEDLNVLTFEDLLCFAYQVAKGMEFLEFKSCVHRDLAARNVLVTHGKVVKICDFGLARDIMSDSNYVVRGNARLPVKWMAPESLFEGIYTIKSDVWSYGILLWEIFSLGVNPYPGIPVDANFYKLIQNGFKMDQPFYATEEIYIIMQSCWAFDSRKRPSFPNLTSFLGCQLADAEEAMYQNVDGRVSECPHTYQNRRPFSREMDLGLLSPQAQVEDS
Description: (§1) Enzyme activity for VEGFR3, VEGFR2 and Flt3 were measured on the Caliper Life Sciences LC3000 (Hopkinton, Mass.). The system utilizes the principle of electroosmotic flow to separate and quantify the amount of phosphorylated-Fluorescein-labelled-peptide (product) from unphosphorylated-Fluorescein-labelled peptide (substrate). The amount of product and substrate are determined by measuring the peak heights from the electropherogram. The enzyme activity is then quantified by dividing the amount of product by the sum of the product and substrate. The inhibitory activity of a sample is measured by comparing the enzyme activity in the presence of sample versus the enzyme activity in the presence of dimethylsufoxide (DMSO). Specific assay conditions for each enzyme are listed below:
(§2) Flt3 assay: The peptide substrate at 1 uM (FITC-AHA-UEAIYAAPFAKKK-CONH2; synthesized at Tufts University, Boston, Mass.) was incubated with 350 uM of ATP, corresponding to the Michaelis-Menten (Km) constant of the enzyme/substrate reaction, and 3 nM of Flt3 (BPS Bioscience; San Diego, Calif.; Cat. No. 40225) for 90 minutes at RT. After 90 minutes, the reaction was stopped by the addition of 10 mM EDTA. The substrate and product were then separated on the LC3000.

VEGFR3 = target: T2, VEGFR3 (Homo sapiens, UniProt P35916); assay: VEGFR3 enzyme activity assay (Caliper LC3000 mobility shift); details: 400 uM ATP (Km), 0.4 nM VEGFR3, 90 minutes at RT
T2 construct: purchased Millpore Corp. (Millipore) 14-681
T2 sequence (P35916 25-1363): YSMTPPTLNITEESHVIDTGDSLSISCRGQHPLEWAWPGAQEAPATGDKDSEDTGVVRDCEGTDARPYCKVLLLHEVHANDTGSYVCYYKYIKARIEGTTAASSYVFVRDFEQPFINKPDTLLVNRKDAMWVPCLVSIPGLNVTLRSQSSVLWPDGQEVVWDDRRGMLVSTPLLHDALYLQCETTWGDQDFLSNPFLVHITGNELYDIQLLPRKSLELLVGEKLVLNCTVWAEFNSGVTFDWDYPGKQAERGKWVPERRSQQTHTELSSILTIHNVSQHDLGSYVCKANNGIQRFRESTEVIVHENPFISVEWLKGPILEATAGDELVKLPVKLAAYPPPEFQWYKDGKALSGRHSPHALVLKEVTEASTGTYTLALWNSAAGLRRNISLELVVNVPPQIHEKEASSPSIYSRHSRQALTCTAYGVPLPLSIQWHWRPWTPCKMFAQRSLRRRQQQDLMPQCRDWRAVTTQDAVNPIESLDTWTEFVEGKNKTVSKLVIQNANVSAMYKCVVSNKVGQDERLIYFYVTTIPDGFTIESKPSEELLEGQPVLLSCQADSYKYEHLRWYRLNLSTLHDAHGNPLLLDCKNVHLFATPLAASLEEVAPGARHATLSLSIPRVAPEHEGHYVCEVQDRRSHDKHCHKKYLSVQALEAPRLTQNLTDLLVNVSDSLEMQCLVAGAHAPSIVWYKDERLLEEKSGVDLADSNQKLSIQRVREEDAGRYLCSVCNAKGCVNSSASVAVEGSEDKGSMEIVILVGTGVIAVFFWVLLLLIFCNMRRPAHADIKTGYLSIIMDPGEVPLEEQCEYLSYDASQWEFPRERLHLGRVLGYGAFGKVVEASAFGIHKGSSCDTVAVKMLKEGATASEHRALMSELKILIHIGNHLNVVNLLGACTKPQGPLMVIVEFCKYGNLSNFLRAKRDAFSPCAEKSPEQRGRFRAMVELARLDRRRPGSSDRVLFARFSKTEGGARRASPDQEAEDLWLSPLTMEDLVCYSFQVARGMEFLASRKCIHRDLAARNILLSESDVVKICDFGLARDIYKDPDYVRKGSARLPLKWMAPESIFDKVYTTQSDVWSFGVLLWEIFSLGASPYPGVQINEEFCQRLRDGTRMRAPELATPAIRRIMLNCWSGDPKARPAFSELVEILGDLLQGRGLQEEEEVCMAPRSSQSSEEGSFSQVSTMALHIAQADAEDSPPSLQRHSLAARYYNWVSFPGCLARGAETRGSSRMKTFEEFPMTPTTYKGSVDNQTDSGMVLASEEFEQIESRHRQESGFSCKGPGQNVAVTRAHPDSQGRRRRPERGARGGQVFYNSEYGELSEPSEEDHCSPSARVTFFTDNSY
Description: as §1
VEGFR3 assay: The peptide substrate at 1 uM (FITC-KKKKEEIYFFF-CONH2; synthesized at Tufts University, Boston, Mass.) was incubated with 400 uM of ATP, corresponding to the Michaelis-Menten (Km) constant of the enzyme/substrate reaction, and 0.4 nM of VEGFR3 (Millpore Corp., Cat. No. 14-681) for 90 minutes at RT. After 90 minutes, the reaction was stopped by the addition of 10 mM EDTA. The substrate and product were then separated on the LC3000.

VEGFR2 = target: T3, VEGFR2 (Homo sapiens, UniProt P35968); assay: VEGFR2 enzyme activity assay (Caliper LC3000 mobility shift); details: 160 uM ATP (Km), 1 nM VEGFR2, 90 minutes at RT
T3 construct: purchased BPS Bioscience; San Diego, Calif; 40301
T3 sequence (P35968 20-1356): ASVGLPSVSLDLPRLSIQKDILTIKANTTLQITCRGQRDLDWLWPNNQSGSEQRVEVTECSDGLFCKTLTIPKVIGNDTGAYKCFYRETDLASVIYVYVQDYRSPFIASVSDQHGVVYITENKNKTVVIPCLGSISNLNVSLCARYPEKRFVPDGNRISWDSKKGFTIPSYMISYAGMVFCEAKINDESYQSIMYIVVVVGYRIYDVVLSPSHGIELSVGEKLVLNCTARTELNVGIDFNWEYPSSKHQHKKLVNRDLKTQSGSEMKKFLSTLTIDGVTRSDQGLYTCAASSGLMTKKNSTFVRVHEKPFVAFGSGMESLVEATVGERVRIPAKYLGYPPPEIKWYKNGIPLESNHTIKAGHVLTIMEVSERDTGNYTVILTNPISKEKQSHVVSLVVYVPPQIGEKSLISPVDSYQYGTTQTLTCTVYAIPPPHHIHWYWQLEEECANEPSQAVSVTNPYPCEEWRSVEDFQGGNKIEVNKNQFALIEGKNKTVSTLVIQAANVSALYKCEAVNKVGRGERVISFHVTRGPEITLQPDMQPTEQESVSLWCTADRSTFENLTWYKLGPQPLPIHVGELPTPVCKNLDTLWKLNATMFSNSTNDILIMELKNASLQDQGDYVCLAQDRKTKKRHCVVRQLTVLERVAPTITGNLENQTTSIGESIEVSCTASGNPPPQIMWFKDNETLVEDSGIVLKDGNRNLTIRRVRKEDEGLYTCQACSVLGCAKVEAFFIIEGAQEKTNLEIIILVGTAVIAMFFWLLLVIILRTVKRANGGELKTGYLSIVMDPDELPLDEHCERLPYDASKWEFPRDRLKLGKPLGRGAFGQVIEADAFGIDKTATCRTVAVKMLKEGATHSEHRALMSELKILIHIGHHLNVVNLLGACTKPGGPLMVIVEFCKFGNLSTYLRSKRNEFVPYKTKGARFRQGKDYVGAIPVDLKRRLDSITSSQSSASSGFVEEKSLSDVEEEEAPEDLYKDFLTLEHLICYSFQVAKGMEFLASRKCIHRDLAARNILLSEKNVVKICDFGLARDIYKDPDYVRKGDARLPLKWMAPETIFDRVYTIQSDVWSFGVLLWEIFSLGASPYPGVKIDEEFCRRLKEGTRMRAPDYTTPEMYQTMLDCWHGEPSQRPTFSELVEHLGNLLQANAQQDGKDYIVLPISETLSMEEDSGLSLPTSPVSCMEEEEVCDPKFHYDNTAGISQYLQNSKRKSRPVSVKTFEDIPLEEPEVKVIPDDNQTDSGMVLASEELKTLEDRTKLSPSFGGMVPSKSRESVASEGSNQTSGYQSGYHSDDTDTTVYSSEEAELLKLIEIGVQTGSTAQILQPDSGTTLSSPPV
Description: as §1
as §2, with “VEGFR2 assay:” for “Flt3 assay:”, “uM (5-FL-EEPLYWSFPAKKK-CONH2;” for “uM (FITC-AHA-UEAIYAAPFAKKK-CONH2;”, “with 160” for “with 350”, “and 1” for “and 3”, “of VEGFR2” for “of Flt3”, “No. 40301)” for “No. 40225)”

Measured: IC50

C(#Cc1ccnc2[nH]ccc12)c1ccc(-c2csnn2)cc1 [compound 136]
> 1 µM: all assays above

Nc1ccccc1C#Cc1cnc2[nH]ccc2c1 [compound 137]
> 1 µM: all assays above

COc1ccc(C#Cc2cnc3[nH]ccc3c2)cc1 [compound 138]
> 1 µM: all assays above

COc1ccc(NC(=O)Cc2ccccc2C#Cc2ccnc3[nH]ccc23)cc1 [compound 139]
> 1 µM: all assays above
